From PubChem BioAssay (NCI)
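Step 1: Grow cells in 96-well plates. Step 2: Expose to compound for 48 hours at 5 concentrations. Step 3: Interpolate endpoints linearly; if unreached, use highest concentration. The concentration for 50% growth inhibition is given as GI50. The concentration for full growth arrest is given as TGI.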

Key:
Assay in all cases: growth of human tumour cells (NCI), 48 h
MALME-3M melanoma = tested on: MALME-3M melanoma
OVCAR-5 ovarian = tested on: OVCAR-5 ovarian
RPMI-8226 leukemia = tested on: RPMI-8226 leukemia
NCI/ADR-RES ovarian = tested on: NCI/ADR-RES ovarian
SK-MEL-5 melanoma = tested on: SK-MEL-5 melanoma
T-47D breast = tested on: T-47D breast
K-562 leukemia = tested on: K-562 leukemia
MDA-MB-435 = tested on: MDA-MB-435
SF-539 CNS = tested on: SF-539 CNS
HCC-2998 colon = tested on: HCC-2998 colon
OVCAR-3 ovarian = tested on: OVCAR-3 ovarian
MCF7 breast = tested on: MCF7 breast
MOLT-4 leukemia = tested on: MOLT-4 leukemia
NCI-H226 lung = tested on: NCI-H226 lung
SK-OV-3 ovarian = tested on: SK-OV-3 ovarian
PC-3 prostate = tested on: PC-3 prostate
UACC-257 melanoma = tested on: UACC-257 melanoma
CCRF-CEM leukemia = tested on: CCRF-CEM leukemia
COLO 205 colon = tested on: COLO 205 colon
MDA-MB-231 breast = tested on: MDA-MB-231 breast
SK-MEL-28 melanoma = tested on: SK-MEL-28 melanoma
SR leukemia = tested on: SR leukemia
SF-268 CNS = tested on: SF-268 CNS
CAKI-1 renal = tested on: CAKI-1 renal
HOP-62 NSCLC = tested on: HOP-62 NSCLC
UO-31 renal = tested on: UO-31 renal
SNB-19 CNS = tested on: SNB-19 CNS
IGROV1 ovarian = tested on: IGROV1 ovarian
OVCAR-4 ovarian = tested on: OVCAR-4 ovarian
OVCAR-8 ovarian = tested on: OVCAR-8 ovarian
TK-10 renal = tested on: TK-10 renal
786-0 renal = tested on: 786-0 renal
HL-60(TB) leukemia = tested on: HL-60(TB) leukemia
HCT-15 colon = tested on: HCT-15 colon
SW-620 colon = tested on: SW-620 colon
A498 renal = tested on: A498 renal
SNB-75 CNS = tested on: SNB-75 CNS
M14 melanoma = tested on: M14 melanoma
NCI-H23 lung = tested on: NCI-H23 lung
MDA-MB-468 breast = tested on: MDA-MB-468 breast
SN12C renal = tested on: SN12C renal
RXF 393 renal = tested on: RXF 393 renal
A549 NSCLC = tested on: A549 NSCLC
EKVX NSCLC = tested on: EKVX NSCLC
ACHN renal = tested on: ACHN renal
HS 578T breast = tested on: HS 578T breast
BT-549 breast = tested on: BT-549 breast
U251 CNS = tested on: U251 CNS
HCT-116 colon = tested on: HCT-116 colon
NCI-H460 lung = tested on: NCI-H460 lung
UACC-62 melanoma = tested on: UACC-62 melanoma
DU-145 prostate = tested on: DU-145 prostate
HT29 colon = tested on: HT29 colon
LOX IMVI melanoma = tested on: LOX IMVI melanoma
SF-295 CNS = tested on: SF-295 CNS
KM12 colon = tested on: KM12 colon
NCI-H522 lung = tested on: NCI-H522 lung
HOP-92 NSCLC = tested on: HOP-92 NSCLC

## C[C@@H]1CN(c2ccc3ncc(C#Cc4cncc(C(=O)Nc5ccc(CN6CCN(C)CC6)c(C(F)(F)F)c5)c4)n3n2)C[C@@H](C)O1
MALME-3M melanoma
  GI50: 276 nM
  TGI: 826 nM
OVCAR-5 ovarian
  GI50: 363 nM
  TGI: 922 nM
RPMI-8226 leukemia
  GI50: 507 nM
  TGI: 2030 nM
NCI/ADR-RES ovarian
  GI50: 899 nM
  TGI: 1850 nM
SK-MEL-5 melanoma
  GI50: 673 nM
  TGI: 1370 nM
T-47D breast
  GI50: 754 nM
  TGI: 2220 nM
K-562 leukemia
  GI50: 33.6 nM
  TGI: 2730 nM
MDA-MB-435
  GI50: 281 nM
  TGI: 833 nM
SF-539 CNS
  GI50: 142 nM
  TGI: 382 nM
HCC-2998 colon
  GI50: 426 nM
  TGI: 1010 nM
OVCAR-3 ovarian
  GI50: 328 nM
  TGI: 1130 nM
MCF7 breast
  GI50: 229 nM
  TGI: 679 nM
MOLT-4 leukemia
  GI50: 297 nM
  TGI: 4090 nM
NCI-H226 lung
  GI50: 87.9 nM
  TGI: 574 nM
SK-OV-3 ovarian
  GI50: 510 nM
  TGI: 1570 nM
PC-3 prostate
  GI50: 507 nM
  TGI: 1810 nM
UACC-257 melanoma
  GI50: 737 nM
  TGI: 3510 nM
CCRF-CEM leukemia
  GI50: 475 nM
  TGI: 1530 nM
COLO 205 colon
  GI50: 316 nM
  TGI: 719 nM
MDA-MB-231 breast
  GI50: 59.5 nM
  TGI: 207 nM
SK-MEL-28 melanoma
  GI50: 520 nM
  TGI: 1230 nM
SR leukemia
  GI50: 499 nM
  TGI: 10300 nM
SF-268 CNS
  GI50: 299 nM
  TGI: 1130 nM
CAKI-1 renal
  GI50: 1370 nM
  TGI: 3890 nM
HOP-62 NSCLC
  GI50: 318 nM
  TGI: 968 nM
UO-31 renal
  GI50: 128 nM
  TGI: 462 nM
SNB-19 CNS
  GI50: 467 nM
  TGI: 1260 nM
IGROV1 ovarian
  GI50: 276 nM
  TGI: 772 nM
OVCAR-4 ovarian
  GI50: 263 nM
  TGI: 1240 nM
OVCAR-8 ovarian
  GI50: 366 nM
  TGI: 1050 nM
TK-10 renal
  GI50: 299 nM
  TGI: 727 nM
786-0 renal
  GI50: 407 nM
  TGI: 986 nM
HL-60(TB) leukemia
  GI50: 421 nM
  TGI: 1170 nM
HCT-15 colon
  GI50: 286 nM
  TGI: 632 nM
SW-620 colon
  GI50: 277 nM
  TGI: 768 nM
A498 renal
  GI50: 678 nM
  TGI: 1370 nM
SNB-75 CNS
  GI50: 61.6 nM
  TGI: 188 nM
M14 melanoma
  GI50: 280 nM
  TGI: 771 nM
NCI-H23 lung
  GI50: 268 nM
  TGI: 617 nM
MDA-MB-468 breast
  GI50: 216 nM
  TGI: 452 nM
SN12C renal
  GI50: 143 nM
  TGI: 647 nM
RXF 393 renal
  GI50: 187 nM
  TGI: 432 nM
A549 NSCLC
  GI50: 340 nM
  TGI: 938 nM
EKVX NSCLC
  GI50: 227 nM
  TGI: 654 nM
ACHN renal
  GI50: 242 nM
  TGI: 680 nM
HS 578T breast
  GI50: 166 nM
  TGI: 794 nM
BT-549 breast
  GI50: 349 nM
  TGI: 1200 nM
U251 CNS
  GI50: 362 nM
  TGI: 1010 nM
HCT-116 colon
  GI50: 270 nM
  TGI: 790 nM
NCI-H460 lung
  GI50: 379 nM
  TGI: 1040 nM
UACC-62 melanoma
  GI50: 310 nM
  TGI: 989 nM
DU-145 prostate
  GI50: 332 nM
  TGI: 923 nM
HT29 colon
  GI50: 311 nM
  TGI: 979 nM
LOX IMVI melanoma
  GI50: 222 nM
  TGI: 468 nM
SF-295 CNS
  GI50: 332 nM
  TGI: 1010 nM
KM12 colon
  GI50: 11.4 nM
  TGI: 534 nM
NCI-H522 lung
  GI50: 261 nM
  TGI: 525 nM
HOP-92 NSCLC
  GI50: 124 nM
  TGI: 496 nM
